Assay results as given in patent US9981968B2, “Substituted pyrrolo[2,3-d]pyrimidines for the treatment of cancer and proliferative disorders” (Northwestern University, priority 2013, dated 2018).

Assays:
Format in all cases: cell-based
MOLT-4 = experiment: SRB growth assay, MOLT-4; details: Homo sapiens, MOLT-4 (Leukemia), 48 hours, read-out: Percent viability
Source text: (§1) Tested cell lines included, Leukemia: CCRF-CEM, HL-60(TB), MOLT-4, RPMI-8226 and SR; Non-Small Cell Lung: A549/ATCC, EKVX, HOP-62, HOP-92, NCI-H226, NCI-H23, NCI-H322M, NCI-H460 and NCI-H522; Colon: COLO 205, HCC-2998, HCT-116, HCT-15. HT29, KM12 and SW-620; CNS: SF-268, SF-295, SF-539, SNB-19, SNB-75 and U251; Melanoma: LOX IMVI, MALME-3M, M14, MDA-MB-435, SK-MEL-2, SK-MEL-28, SK-MEL-5, UACC-257 and UACC-62; Ovarian: IGR-OV1, OVCAR-3, OVCAR-4, OVCAR-5, OVCAR-8. NCI/ADR-RES and SK-OV-3; Renal: 786-0, A498, ACHN, CAKI-1, RXF 393, SN12C, TK-10 and UO-31; Prostate: DU-145 and PC-3; and Breast: MCF7, MDA-MB-231/ATCC, MDA-MB-468, HS 578T, BT-549 and T-47D.
(§2) The cells were cultured in RPMI1640 media supplemented with 10% Fetal Bovine Serum (FBS), 2 mM glutamine and with 5% CO2 and 37° C. For experiment, 5% of FBS and 50 ug/mL of gentamycin were used. Test articles were 10 μM of NUCL 381-3 or 10 μM NUCL 383-3. The positive control was 10 μM of doxorubicin.
(§3) Cells were plated in 96 well plates. The cells were plated in triplicate. Cells were plated at the densities based on NCI recommendation. Time zero cells (Tz) were fixed the following day with 50% or 80% ice cold Trichloracetic acid (TCA) and washed 5× with water. At 48 hours post addition of treatments, all remaining plates were fixed in 80% ice cold Trichloracetic acid (TCA) and washed 5× with water. After drying, one hundred microliters of 0.4% Sulphorhodamine B (SRB) in 1% acetic acid was added to each plate including the Tzero plate and incubated for 10 minutes at room temperature. After 5 additional washes with 1% acetic acid, plates were allowed to dry. One hundred microliters of Trizma base was added to each well and plates were read at 515 nm.
(§4) Percent of growth was calculated by the following formulas: [Ti/C]×100, where: Tz=absorbance readings for wells at time zero without treatment; C=absorbance readings of untreated cells (without treatment); and Ti=absorbance reading of wells with treatment.

SR = experiment: SRB growth assay, SR; details: Homo sapiens, SR (Leukemia), 48 hours, read-out: Percent viability
Source text: as §1, §2, §3, §4

EKVX = experiment: SRB growth assay, EKVX; details: Homo sapiens, EKVX (Non-Small Cell Lung), 48 hours, read-out: Percent viability
Source text: as §1, §2, §3, §4

HOP-62 = experiment: SRB growth assay, HOP-62; details: Homo sapiens, HOP-62 (Non-Small Cell Lung), 48 hours, read-out: Percent viability
Source text: as §1, §2, §3, §4

NCI-H226 = experiment: SRB growth assay, NCI-H226; details: Homo sapiens, NCI-H226 (Non-Small Cell Lung), 48 hours, read-out: Percent viability
Source text: as §1, §2, §3, §4

COLO 205 = experiment: SRB growth assay, COLO 205; details: Homo sapiens, COLO 205 (Colon), 48 hours, read-out: Percent viability
Source text: as §1, §2, §3, §4

HCT-116 = experiment: SRB growth assay, HCT-116; details: Homo sapiens, HCT-116 (Colon), 48 hours, read-out: Percent viability
Source text: as §1, §2, §3, §4

HT29 = experiment: SRB growth assay, HT29; details: Homo sapiens, HT-29, HT29 (Colon), 48 hours, read-out: Percent viability
Source text: as §1, §2, §3, §4

KM12 = experiment: SRB growth assay, KM12; details: Homo sapiens, KM12 (Colon), 48 hours, read-out: Percent viability
Source text: as §1, §2, §3, §4

SF-539 = experiment: SRB growth assay, SF-539; details: Homo sapiens, SF-539 (CNS), 48 hours, read-out: Percent viability
Source text: as §1, §2, §3, §4

SNB-19 = experiment: SRB growth assay, SNB-19; details: Homo sapiens, SNB-19 (CNS), 48 hours, read-out: Percent viability
Source text: as §1, §2, §3, §4

U251 = experiment: SRB growth assay, U251; details: Homo sapiens, U-251, U251 (CNS), 48 hours, read-out: Percent viability
Source text: as §1, §2, §3, §4

M14 = experiment: SRB growth assay, M14; details: Homo sapiens, M14 (Melanoma), 48 hours, read-out: Percent viability
Source text: as §1, §2, §3, §4

MDA-MB-435 = experiment: SRB growth assay, MDA-MB-435; details: Homo sapiens, MDA-MB-435 (Melanoma), 48 hours, read-out: Percent viability
Source text: as §1, §2, §3, §4

SK-MEL-28 = experiment: SRB growth assay, SK-MEL-28; details: Homo sapiens, SK-MEL-28 (Melanoma), 48 hours, read-out: Percent viability
Source text: as §1, §2, §3, §4

UACC-62 = experiment: SRB growth assay, UACC-62; details: Homo sapiens, UACC-62 (Melanoma), 48 hours, read-out: Percent viability
Source text: as §1, §2, §3, §4

NCI/ADR-RES = experiment: SRB growth assay, NCI/ADR-RES; details: Homo sapiens, NCI/ADR-RES (Ovarian), 48 hours, read-out: Percent viability
Source text: as §1, §2, §3, §4

PC-3 = experiment: SRB growth assay, PC-3; details: Homo sapiens, PC-3 (Prostate), 48 hours, read-out: Percent viability
Source text: as §1, §2, §3, §4

DU-145 = experiment: SRB growth assay, DU-145; details: Homo sapiens, DU-145 (Prostate), 48 hours, read-out: Percent viability
Source text: as §1, §2, §3, §4

MDA-MB-231 = experiment: SRB growth assay, MDA-MB-231; details: Homo sapiens, MDA-MB-231 (Breast), 48 hours, read-out: Percent viability
Source text: as §1, §2, §3, §4

MDA-MB-468 = experiment: SRB growth assay, MDA-MB-468; details: Homo sapiens, MDA-MB-468 (Breast), 48 hours, read-out: Percent viability
Source text: as §1, §2, §3, §4

HS 578T = experiment: SRB growth assay, HS 578T; details: Homo sapiens, HS 578T (Breast), 48 hours, read-out: Percent viability
Source text: as §1, §2, §3, §4

T-47D = experiment: SRB growth assay, T-47D; details: Homo sapiens, T47D, T-47D (Breast), 48 hours, read-out: Percent viability
Source text: as §1, §2, §3, §4

Compound | viability at 10 µM (MOLT-4) [%] | viability at 10 µM (SR) [%] | viability at 10 µM (EKVX) [%] | viability at 10 µM (HOP-62) [%] | viability at 10 µM (NCI-H226) [%] | viability at 10 µM (COLO 205) [%] | viability at 10 µM (HCT-116) [%] | viability at 10 µM (HT29) [%] | viability at 10 µM (KM12) [%] | viability at 10 µM (SF-539) [%] | viability at 10 µM (SNB-19) [%] | viability at 10 µM (U251) [%] | viability at 10 µM (M14) [%] | viability at 10 µM (MDA-MB-435) [%] | viability at 10 µM (SK-MEL-28) [%] | viability at 10 µM (UACC-62) [%] | viability at 10 µM (NCI/ADR-RES) [%] | viability at 10 µM (PC-3) [%] | viability at 10 µM (DU-145) [%] | viability at 10 µM (MDA-MB-231) [%] | further results
COc1cccc2c1C(=O)c1c(O)c3c(c(O)c1C2=O)C[C@@](O)(C(=O)CO)C[C@@H]3O[C@H]1C[C@H](N)[C@H](O)[C@H](C)O1 [Doxorubicin, reference compound] | 30.4 | 11.1 | 35.5 | 19.7 | 34.2 | 2.33 | 14.9 | 34.9 | 71.8 | 6.83 | 37.3 | 22 | 25.5 | 17.4 | 29.7 | 4.85 | 78.8 | 50 | 72.5 | 41.8 | viability at 10 µM (MDA-MB-468): 45.8%; viability at 10 µM (HS 578T): 51.5%; viability at 10 µM (T-47D): 37.5%
FC(F)(F)c1cn(CC2CCNCC2)c2ncnc(Cl)c12 [NUCC-0000381] | 75.5 | 16.7 | 57.5 | 15.7 | 54.9 | 79.5 | 20.1 | 33.3 | 31 | 7.4 | 28.9 | 15.1 | 96.2 | 65.5 | 93.3 | 46.3 | 93.3 | 8.43 | 29.8 | 48.5 | viability at 10 µM (MDA-MB-468): 102%; viability at 10 µM (HS 578T): 53.9%; viability at 10 µM (T-47D): 60.8%
CS(=O)(=O)N1CCC(Cn2cc(C(F)(F)F)c3c(Cl)ncnc32)CC1 [NUCC-0000383] | 17.9 | 37 | 84.6 | 88.5 | 29.5 | 93 | 15 | 30.3 | 99.5 | 4.93 | 21.4 | 2.47 | 78.5 | 46.6 | 4.54 | 8.26 | 99 | 3.55 | 11.2 | 33.9 | viability at 10 µM (MDA-MB-468): 93.8%; viability at 10 µM (HS 578T): 50.1%; viability at 10 µM (T-47D): 63.3%
